Assay results: article PMC6325219, “Preclinical Characterization of NVR 3-778, a First-in-Class Capsid Assembly Modulator against Hepatitis B Virus” (Antimicrobial Agents and Chemotherapy, 2018)
Values joined by “and” are separate entries in the source; they are usually repeats but may differ in a detail not shown here. Equal entries are not always repeated. “Also recorded” adds a separate entry of the source. Where two headings read alike, the source gives them in different places.

Legend:
[1] = tested on: HBV isolates representing GT A to H; experiment: Transient-transfection antiviral study, panel of HBV isolates GT A to H (summary statements); assay type: cell-based, hepatitis B virus; conditions: EC50 values within this factor of each other
Experimental: (§1) Cells were cotransfected with the HBV plasmids (100 ng/well) and a Gaussia expression plasmid (10 ng/well) (Thermo Scientific) using the Lipofectamine LTX Plus transfection reagent (Life Technologies). Transfection mixtures were removed after overnight incubation, and cells were treated with serially diluted NVR 3-778 at a final dimethyl sulfoxide (DMSO) concentration of 0.5%. After 3 days of incubation with the compound, the supernatants were collected and secreted Gaussia luciferase was measured using a Gaussia Flash luciferase assay kit (Thermo Scientific). […] Samples were diluted into lysis buffer (Affymetrix) containing 2.5 µg proteinase K (Affymetrix) at 50°C for 40 min. Intracellular encapsidated HBV DNA was denatured for 30 min at 25°C in 0.2 M NaOH (Sigma) and incubated with HBV DNA probes designed to hybridize to the minus-strand HBV DNA (Affymetrix). The denatured DNA was subsequently detected using a QuantiGene assay kit, according to the branched DNA (bDNA) assay recommended by the manufacturer (Affymetrix).

HBV GT A = experiment: Transient-transfection antiviral study in HepG2 cells, GT A; assay type: cell-based; conditions: Hepatitis B virus, 72 h, 3 days, intracellular encapsidated rcDNA
Experimental: as §1

[2] = 28-day twice-daily oral gavage pharmacokinetics in CD1 mice; assay type: in vivo; conditions: for Cmax / half-life / AUC(0-t) / Tmax: CD1, mouse, plasma, po; for AUC(0-t): after second daily dose, read-out: AUC0–12; for Tmax: relative to second daily dose
Experimental: Fed male and female CD1 mice (36/sex/group) were dosed twice a day (BID) by oral gavage with 50, 150, and 500 mg/kg of body weight/dose of NVR 3-778 for 28 days. At different time points after dosing, plasma was analyzed for NVR 3-778 concentration by liquid chromatography-tandem mass spectrometry (LC-MS/MS).
In vivo pharmacokinetics studies were performed at Covance Laboratories (Madison, Wisconsin), accredited by the Association for Assessment and Accreditation of Laboratory Animal Care (AAALAC). All procedures in the protocols were in compliance with applicable animal welfare acts and were approved by the local Institutional Animal Care and Use Committee (IACUC). For the 28-day study in mice, male and female mice were 6 to 7 weeks old at the initiation of dosing. Environmental conditions, diet, and water were typical for pharmacokinetic and tolerability studies. NVR 3-778 was dosed in a vehicle of 0.5% (wt/vol) hydroxypropyl methylcellulose (Methocel E50 premium)--1% (wt/vol) polysorbate 80 (Tween 80) in reverse osmosis water. Blood samples were collected at 0.25, 0.5, 1, 3, 6, and 12 h after dosing on day 1 and on day 28 of the study into potassium (K2) EDTA. Plasma was harvested and stored at −80°C.

HBV GT E = experiment: Transient-transfection antiviral study in HepG2 cells, GT E; assay type: cell-based; conditions: Hepatitis B virus, HepG2, 72 h, read-out: EC50 (mean), HBV GT E
Experimental: as §1

[3] = Hepatocyte stability, human hepatocytes; assay type: in vitro ADME; conditions: 120 min incubation
Experimental: Following in vitro incubation for 120 min with human, mouse, or dog hepatocytes, >85% of the NVR 3-778 remained intact. […] The fewest number of metabolites was found following incubation with human hepatocytes, where 92% of the NVR 3-778 remained after a 120-min incubation.

plasma proteins = experiment: Plasma protein binding by equilibrium dialysis, rat; assay type: in vitro ADME; conditions: 2 µM
Excerpt: The binding of NVR 3-778 to the plasma proteins of mouse, rat, dog, monkey, and human was investigated by equilibrium dialysis.

HBV (GT C) = tested on: HBV (GT C); set-up: method as in PMID 29079518; conditions: cited from earlier work
[4] = Cell viability of HepG2.2.15 cells (ATP levels, CellTiter-Glo); assay type: cell-based; conditions: human, HepG2.2.15 cells, ATP levels, CellTiter-Glo
Experimental: In combination studies, cells were treated with compounds either alone or in combination after combining the compounds in a checkerboard format. In studies examining the effect of human serum, serially diluted NVR 3-778 was added into cell culture medium containing 0% to 40% human serum (BioreclamationIVT). Cells were incubated with the compounds for 3 days, after which the medium was removed, fresh medium containing the compounds was added to the cells, and the cells were incubated for another 3 days prior to harvesting of the supernatants or cells for antiviral assays. To quantify intracellular encapsidated rcDNA or encapsidated pgRNA, cells were first solubilized using lysis buffer containing 1% NP-40 and 10 mM CaCl2. The cytoplasmic fraction was then treated with S7 nuclease (6 units) to remove nonencapsidated nucleic acids, after which the S7 nuclease was inactivated by the addition of EDTA (0.5 M). […] The levels of HBV DNA were determined by a bDNA assay as described above (Affymetrix). Supernatants or cell lysates containing HBV RNA were treated with proteinase K (2.5 µg) at 50°C for 40 min, transferred to a capture plate containing HBV RNA probe sets, and hybridized overnight at 55°C. Captured HBV RNA was measured by the addition of a chemiluminescent substrate using a QuantiGene assay (Affymetrix). […] At day 6, the CellTiter-Glo reagent was added to the cells and viability was determined according to the manufacturer’s protocol (Promega). Luminescence signals were measured at 0.2 s using a Victor X4 multimode plate reader (PerkinElmer).

[5] = female, 50 mg/kg, day 1, 50 mg/kg/dose BID oral gavage, F
[6] = female, 50 mg/kg, day 28, 50 mg/kg/dose BID oral gavage, F
[7] = female, 150 mg/kg, day 1, 150 mg/kg/dose BID oral gavage, F
[8] = female, 150 mg/kg, day 28, 150 mg/kg/dose BID oral gavage, F
[9] = female, 500 mg/kg, day 1, 500 mg/kg/dose BID oral gavage, F
[10] = female, 500 mg/kg, day 28, 500 mg/kg/dose BID oral gavage, F
[11] = male, 50 mg/kg, day 1, 50 mg/kg/dose BID oral gavage, M
[12] = male, 50 mg/kg, day 28, 50 mg/kg/dose BID oral gavage, M
[13] = male, 150 mg/kg, day 1, 150 mg/kg/dose BID oral gavage, M
[14] = male, 150 mg/kg, day 28, 150 mg/kg/dose BID oral gavage, M
[15] = male, 500 mg/kg, day 1, 500 mg/kg/dose BID oral gavage, M
[16] = male, 500 mg/kg, day 28, 500 mg/kg/dose BID oral gavage, M

Question: Which results are given for O=C(Nc1cc(F)c(F)c(F)c1)c1ccc(F)c(S(=O)(=O)N2CCC(O)CC2)c1 [NVR 3-778]?
Answer: Spread of EC50 values against HBV DNA replication across GT A to H isolates [1]: ≤ 3 fold; EC50 (HBV GT A): 380 nM; Gender differences in NVR 3-778 exposure ([2]; CD1 mice, Cmax and AUC): less than 2 fold; Cmax ([2]; both sexes, 500 mg/kg, 28-day study, dosed orally at 500 mg/kg BID, 100 µM = 43.2 µg/ml, read-out: Mean Cmax (serum/plasma level reached in mice)): > 100 µM; half-life [2, 5]: 132 min; AUC(0-t) [2, 5]: 60.1 µg·h/mL; Cmax ([2]; female, 50 mg/kg, day 1, 50 mg/kg/dose BID oral gavage, F, read-out: Cmax): 11700 ng/mL; Tmax [2, 5]: 0.5 h; AUC(0-t) [2, 6]: 78.8 µg·h/mL; Cmax ([2]; female, 50 mg/kg, day 28, 50 mg/kg/dose BID oral gavage, F, read-out: Cmax): 11500 ng/mL; Tmax [2, 6]: 3 h; half-life [2, 7]: 261 min; AUC(0-t) [2, 7]: 131 µg·h/mL; Cmax ([2]; female, 150 mg/kg, day 1, 150 mg/kg/dose BID oral gavage, F, read-out: Cmax): 22000 ng/mL; Tmax [2, 7]: 0.5 h; half-life [2, 8]: 149 min; AUC(0-t) [2, 8]: 171 µg·h/mL; Cmax ([2]; female, 150 mg/kg, day 28, 150 mg/kg/dose BID oral gavage, F, read-out: Cmax): 26600 ng/mL; Tmax [2, 8]: 1 h; AUC(0-t) [2, 9]: 315 µg·h/mL; Cmax ([2]; female, 500 mg/kg, day 1, 500 mg/kg/dose BID oral gavage, F, read-out: Cmax): 41400 ng/mL; Tmax [2, 9]: 0.5 h; AUC(0-t) [2, 10]: 354 µg·h/mL; Cmax ([2]; female, 500 mg/kg, day 28, 500 mg/kg/dose BID oral gavage, F, read-out: Cmax): 40800 ng/mL; Tmax [2, 10]: 3 h; AUC(0-t) [2, 11]: 70.4 µg·h/mL; Cmax ([2]; male, 50 mg/kg, day 1, 50 mg/kg/dose BID oral gavage, M, read-out: Cmax): 12700 ng/mL; Tmax [2, 11]: 1 h; AUC(0-t) [2, 12]: 87.3 µg·h/mL; Cmax ([2]; male, 50 mg/kg, day 28, 50 mg/kg/dose BID oral gavage, M, read-out: Cmax): 11900 ng/mL; Tmax [2, 12]: 3 h; half-life [2, 13]: 300 min; AUC(0-t) [2, 13]: 166 µg·h/mL; Cmax ([2]; male, 150 mg/kg, day 1, 150 mg/kg/dose BID oral gavage, M, read-out: Cmax): 25300 ng/mL; Tmax [2, 13]: 1 h; AUC(0-t) [2, 14]: 157 µg·h/mL; Cmax ([2]; male, 150 mg/kg, day 28, 150 mg/kg/dose BID oral gavage, M, read-out: Cmax): 24200 ng/mL; Tmax [2, 14]: 1 h; AUC(0-t) [2, 15]: 406 µg·h/mL; Cmax ([2]; male, 500 mg/kg, day 1, 500 mg/kg/dose BID oral gavage, M, read-out: Cmax): 43000 ng/mL; Tmax [2, 15]: 1 h; half-life [2, 16]: 189 min; AUC(0-t) [2, 16]: 375 µg·h/mL; Cmax ([2]; male, 500 mg/kg, day 28, 500 mg/kg/dose BID oral gavage, M, read-out: Cmax): 43800 ng/mL; Tmax [2, 16]: 3 h; Circulating species in plasma ([2]; mice, oral gavage): predominant circulating molecule; EC50 (HBV GT E): 580 nM; NVR 3-778 remaining intact [3]: > 85% and 92%; Mean percent binding to plasma proteins (plasma proteins): approximately 91%; Antiviral activity compared with ETV (HBV (GT C); HBV-infected humanized mice, 405 mg/kg BID): antiviral activity similar to that of the nucleoside analog ETV; Reduction of serum HBV DNA and HBV RNA, combination with pegIFN versus NVR 3-778 alone, pegIFN alone or entecavir alone (HBV (GT C); HBV-infected humanized mice): greater reduction in both serum HBV DNA and HBV RNA levels; Effect on serum HBV DNA and HBV RNA levels (HBV (GT C); humanized mice infected with GT C HBV): effective at reducing both serum HBV DNA and HBV RNA levels; also recorded: significant reductions in HBV DNA and secreted HBV RNA levels; CC50 at 6 days [4]: 14.5 µM
